From patent US20260315464A1, “COMPOSITIONS, METHODS, AND SYSTEMS FOR MODULATING SPLICING OF MSH3” (REVIR THERAPEUTICS, INC., priority 2023, published 2026)

Test system: MSH3
Experiment: QPCR assay for levels of MSH3 upon compound treatment in HEK293T or AD293 cells (fold-change of MSH3 transcript, EC50 of MSH3 downregulation; total MSH3 exons 13/14, exons 20/21; Table 8)
Assay type: cell-based
Settings: for EC50: EC50 of MSH3 downregulation, XtalPi; for mrna remaining at 1 µM / mrna remaining at 10 µM: Homo sapiens, fold-change of the MSH3 transcript, normalized to GAPDH; for mrna remaining at 1 µM: 1 μM compound; for mrna remaining at 10 µM: 10 μM compound
Summary of the method: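 MSH3 mRNA was quantified by TaqMan qPCR covering exons 13/14, exons 20/21, exon 13/PE14A and exon 20/PE21A, with GAPDH as reference. Cells used were HEK293T or AD293, treated with compound at 1 μM and […].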

EC50 [nM] | SMILES | mrna remaining at 1 µM [%] | mrna remaining at 10 µM [%]
799 | Cc1nn(C)nc1-c1cc(F)c2c(c1)C(=O)N(c1ccc(O[C@H]3C[C@]4(C)CC[C@](C)(C3)N4)nn1)C2 [Compound 283, 6-(2,5-dimethyl-2H-1,2,3-triazol-4-yl)-2-(6-(((1R,3s,5S)-1,5-dimethyl-8-azabicyclo[3.2.1]octan-3-yl)oxy)pyridazin-3-yl)-4-fluoroisoindolin-1-one] | 48 | 11
– | Cc1nn(C)cc1-c1cc(F)c2c(c1)C(=O)N(c1ccc(OC3CC(C)(C)NC4(CC4)C3)nn1)C2 (stereo not shown) [Compound 284, 6-(1,3-dimethyl-1H-pyrazol-4-yl)-2-(6-((5,5-dimethyl-4-azaspiro[2.5]octan-7-yl)oxy)pyridazin-3-yl)-4-fluoroisoindolin-1-one] | 91 | 73
– | Cc1nc(C)c(-c2cc(F)c3c(c2)C(=O)N(c2ccc(O[C@H]4C[C@]5(C)CC[C@](C)(C4)N5)nn2)C3)s1 [Compound 286, 2-(6-(((1R,3s,5S)-1,5-dimethyl-8-azabicyclo[3.2.1]octan-3-yl)oxy)pyridazin-3-yl)-6-(2,4-dimethylthiazol-5-yl)-4-fluoroisoindolin-1-one] | 117 | 59
– | Cc1nc(C)c(-c2cc(F)c3c(c2)C(=O)N(c2ccc(N(C)[C@H]4C[C@]5(C)CC[C@](C)(C4)N5)nn2)C3)s1 [Compound 289, 2-(6-(((1R,3s,5S)-1,5-dimethyl-8-azabicyclo[3.2.1]octan-3-yl)(methyl)amino)pyridazin-3-yl)-6-(2,4-dimethylthiazol-5-yl)-4-fluoroisoindolin-1-one] | 73 | 22
– | Cc1nn(C)cc1-c1cc(F)c2c(c1)C(=O)N(c1cnc(N(C)[C@H]3C[C@]4(C)CC[C@](C)(C3)N4)nn1)C2 [Compound 291, 6-(1,3-dimethyl-1H-pyrazol-4-yl)-2-(3-(((1R,3s,5S)-1,5-dimethyl-8-azabicyclo[3.2.1]octan-3-yl)(methyl)amino)-1,2,4-triazin-6-yl)-4-fluoroisoindolin-1-one] | 93 | 81
~1060 | Cc1nn(C)nc1-c1cc(F)c2c(c1)C(=O)N(c1ccc(N(C)C3CC(C)(C)NC(C)(C)C3)nn1)C2 [Compound 293, 6-(2,5-dimethyl-2H-1,2,3-triazol-4-yl)-4-fluoro-2-(6-(methyl(2,2,6,6-tetramethylpiperidin-4-yl)amino)pyridazin-3-yl)isoindolin-1-one] | 54 | 12
480 | Cc1nn(C)nc1-c1cc(F)c2c(c1)C(=O)N(c1ccc(N(C)[C@H]3C[C@]4(C)CC[C@](C)(C3)N4)nn1)C2 [Compound 294, 6-(2,5-dimethyl-2H-1,2,3-triazol-4-yl)-2-(6-(((1R,3s,5S)-1,5-dimethyl-8-azabicyclo[3.2.1]octan-3-yl)(methyl)amino)pyridazin-3-yl)-4-fluoroisoindolin-1-one] | 27 | 12
– | Cc1nn(C)cc1-c1cc(F)c2c(c1)C(=O)N(c1ccc(N3CCN[C@@H](C(C)C)C3)nn1)C2 [Compound 296, (S)-6-(1,3-dimethyl-1H-pyrazol-4-yl)-4-fluoro-2-(6-(3-isopropylpiperazin-1-yl)pyridazin-3-yl)isoindolin-1-one] | 54 | –
– | Cc1nn(C)nc1-c1cc(F)c2c(c1)C(=O)N(c1ccc(N3CCN[C@@H](C(C)(C)C)C3)nn1)C2 [Compound 298, (S)-2-(6-(3-(tert-butyl)piperazin-1-yl)pyridazin-3-yl)-6-(2,5-dimethyl-2H-1,2,3-triazol-4-yl)-4-fluoroisoindolin-1-one] | 89 | 29
– | Cn1ncc(-c2ccc3c(c2)C(=O)N(c2ccc(OC4CC(C)(C)NC(C)(C)C4)nn2)C3)n1 [Compound 362, 6-(2-methyl-2H-1,2,3-triazol-4-yl)-2-(6-((2,2,6,6-tetramethylpiperidin-4-yl)oxy)pyridazin-3-yl)isoindolin-1-one] | 65 | 75
– | CN(c1ccc(N2Cc3ccc(-c4cnn(C)c4)cc3C2=O)nn1)[C@H]1C[C@]2(C)CC[C@](C)(C1)N2 [Compound 367, 2-(6-(((1R,3s,5S)-1,5-dimethyl-8-azabicyclo[3.2.1]octan-3-yl)(methyl)amino)pyridazin-3-yl)-6-(1-methyl-1H-pyrazol-4-yl)isoindolin-1-one] | 57 | 27
– | CN(c1ccc(N2Cc3ccc(-c4cnn(C)n4)cc3C2=O)nn1)C1CC(C)(C)NC(C)(C)C1 [Compound 370, 2-(6-(methyl(2,2,6,6-tetramethylpiperidin-4-yl)amino)pyridazin-3-yl)-6-(2-methyl-2H-1,2,3-triazol-4-yl)isoindolin-1-one] | 69 | 61
– | [2H]C([2H])([2H])n1cc(-c2ccc3c(c2)C(=O)N(c2ccc(N(C)[C@H]4C[C@]5(C)CC[C@](C)(C4)N5)nn2)C3)cn1 [Compound 387, 2-(6-(((1R,3s,5S)-1,5-dimethyl-8-azabicyclo[3.2.1]octan-3-yl)(methyl)amino)pyridazin-3-yl)-6-(1-(methyl-d3)-1H-pyrazol-4-yl)isoindolin-1-one] | 96 | 63
– | Cn1cc(-c2ccc3c(c2)C(=O)N(c2ccc(N4CCN[C@@H](C(C)(C)C)C4)nn2)C3)cn1 [Compound 399, (S)-2-(6-(3-(tert-butyl)piperazin-1-yl)pyridazin-3-yl)-6-(1-methyl-1H-pyrazol-4-yl)isoindolin-1-one] | 65 | 43
– | Cc1nn(C)cc1-c1ccc2c(c1)C(=O)N(c1ccc(O[C@H]3C[C@]4(C)CC[C@](C)(C3)N4)nn1)C2 [Compound 416, 6-(1,3-dimethyl-1H-pyrazol-4-yl)-2-(6-(((1R,3s,5S)-1,5-dimethyl-8-azabicyclo[3.2.1]octan-3-yl)oxy)pyridazin-3-yl)isoindolin-1-one] | 37 | –
– | CN(c1ncc(N2Cc3ccc(-c4cnn(C)n4)cc3C2=O)nn1)C1CC(C)(C)NC(C)(C)C1 [Compound 420, 2-(3-(methyl(2,2,6,6-tetramethylpiperidin-4-yl)amino)-1,2,4-triazin-6-yl)-6-(2-methyl-2H-1,2,3-triazol-4-yl)isoindolin-1-one] | 74 | 73
– | Cc1nn(C)cc1-c1ccc2c(c1)C(=O)N(c1ccc(N(C)[C@H]3C[C@]4(C)CC[C@](C)(C3)N4)nn1)C2 [Compound 423, 6-(1,3-dimethyl-1H-pyrazol-4-yl)-2-(6-(((1R,3s,5S)-1,5-dimethyl-8-azabicyclo[3.2.1]octan-3-yl)(methyl)amino)pyridazin-3-yl)isoindolin-1-one] | 37 | 10
– | Cn1ncc(-c2ccc3c(c2)C(=O)N(c2ccc(O[C@H]4C[C@]5(C)CC[C@](C)(C4)N5)nn2)C3)n1 [Compound 425, 2-(6-(((1R,3s,5S)-1,5-dimethyl-8-azabicyclo[3.2.1]octan-3-yl)oxy)pyridazin-3-yl)-6-(2-methyl-2H-1,2,3-triazol-4-yl)isoindolin-1-one] | 82 | 70
– | CN(c1ncc(N2Cc3ccc(-c4cnn(C)n4)cc3C2=O)nn1)[C@H]1C[C@]2(C)CC[C@](C)(C1)N2 [Compound 429, 2-(3-(((1R,3s,5S)-1,5-dimethyl-8-azabicyclo[3.2.1]octan-3-yl)(methyl)amino)-1,2,4-triazin-6-yl)-6-(2-methyl-2H-1,2,3-triazol-4-yl)isoindolin-1-one] | 102 | 52
– | Cc1nn(C)cc1-c1ccc2c(c1)C(=O)N(c1ccc(OC3CC(C)(C)NC4(CC4)C3)nn1)C2 (stereo not shown) [Compound 438, 6-(1,3-dimethyl-1H-pyrazol-4-yl)-2-(6-((5,5-dimethyl-4-azaspiro[2.5]octan-7-yl)oxy)pyridazin-3-yl)isoindolin-1-one] | 109 | 81
– | Cc1nn(C)nc1-c1ccc2c(c1)C(=O)N(c1ccc(O[C@H]3C[C@]4(C)CC[C@](C)(C3)N4)nn1)C2 [Compound 439, 6-(2,5-dimethyl-2H-1,2,3-triazol-4-yl)-2-(6-(((1R,3s,5S)-1,5-dimethyl-8-azabicyclo[3.2.1]octan-3-yl)oxy)pyridazin-3-yl)isoindolin-1-one] | 87 | 72
– | Cc1nn(C)cc1-c1cc(Cl)c2c(c1)C(=O)N(c1ccc(O[C@H]3C[C@]4(C)CC[C@](C)(C3)N4)nn1)C2 [Compound 447, 4-chloro-6-(1,3-dimethyl-1H-pyrazol-4-yl)-2-(6-(((1R,3s,5S)-1,5-dimethyl-8-azabicyclo[3.2.1]octan-3-yl)oxy)pyridazin-3-yl)isoindolin-1-one] | 94 | –
– | Cc1nn(C)cc1-c1cc2c(cn1)CN(c1ccc(OC3CCC(C)(C)NC(C)(C)C3)nn1)C2=O (stereo not shown) [Compound 457, 6-(1,3-dimethyl-1H-pyrazol-4-yl)-2-(6-((2,2,7,7-tetramethylazepan-4-yl)oxy)pyridazin-3-yl)-2,3-dihydro-1H-pyrrolo[3,4-c]pyridin-1-one] | 85 | 70
820 | Cn1cc(-c2cc3c(cn2)CN(c2ccc(O[C@H]4C[C@]5(C)CC[C@](C)(C4)N5)nn2)C3=O)c(Cl)n1 [Compound 458, 6-(3-chloro-1-methyl-1H-pyrazol-4-yl)-2-(6-(((1R,3s,5S)-1,5-dimethyl-8-azabicyclo[3.2.1]octan-3-yl)oxy)pyridazin-3-yl)-2,3-dihydro-1H-pyrrolo[3,4-c]pyridin-1-one] | 40 | 11
